Results reported in BindingDB's records for PubMed 11082457 (Centre De Recherches De Croissy, 2000).

Tests used:
[1] = biological target: T1, Amine oxidase [flavin-containing] B (Rattus norvegicus, UniProt P19643)
T1 sequence (P19643 whole entry): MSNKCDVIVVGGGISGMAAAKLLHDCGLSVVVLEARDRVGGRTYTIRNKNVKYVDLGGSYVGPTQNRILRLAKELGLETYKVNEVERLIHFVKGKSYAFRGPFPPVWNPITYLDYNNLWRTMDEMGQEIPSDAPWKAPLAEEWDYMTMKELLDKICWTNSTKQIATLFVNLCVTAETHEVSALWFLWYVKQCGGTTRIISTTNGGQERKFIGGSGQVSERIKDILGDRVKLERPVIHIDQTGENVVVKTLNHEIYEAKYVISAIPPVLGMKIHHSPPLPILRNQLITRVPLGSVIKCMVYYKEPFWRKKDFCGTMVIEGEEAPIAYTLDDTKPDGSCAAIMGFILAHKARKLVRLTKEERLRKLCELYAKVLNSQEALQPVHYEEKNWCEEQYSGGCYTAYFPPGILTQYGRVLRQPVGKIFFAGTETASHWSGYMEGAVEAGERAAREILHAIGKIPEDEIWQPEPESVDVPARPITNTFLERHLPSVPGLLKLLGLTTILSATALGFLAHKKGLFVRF

[2] = biological target: T2, Alpha-1B adrenergic receptor (Rattus norvegicus, UniProt P15823)
T2 sequence (P15823 whole entry): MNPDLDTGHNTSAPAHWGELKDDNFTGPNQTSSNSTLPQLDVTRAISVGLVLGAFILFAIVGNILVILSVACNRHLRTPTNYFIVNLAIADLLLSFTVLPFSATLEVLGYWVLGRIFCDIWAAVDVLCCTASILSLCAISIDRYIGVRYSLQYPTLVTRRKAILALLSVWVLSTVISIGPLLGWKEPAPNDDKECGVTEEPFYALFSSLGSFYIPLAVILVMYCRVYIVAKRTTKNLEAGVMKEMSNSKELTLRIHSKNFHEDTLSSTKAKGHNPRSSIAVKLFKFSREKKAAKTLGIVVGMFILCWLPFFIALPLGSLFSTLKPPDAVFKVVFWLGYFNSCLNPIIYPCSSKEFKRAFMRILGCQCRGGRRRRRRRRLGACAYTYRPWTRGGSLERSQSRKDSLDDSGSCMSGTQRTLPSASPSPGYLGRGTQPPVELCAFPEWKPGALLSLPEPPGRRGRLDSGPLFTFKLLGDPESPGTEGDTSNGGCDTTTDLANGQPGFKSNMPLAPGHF

Nischarin = biological target: T3, Nischarin (Bos mutus, UniProt L8IEU8)
T3 sequence (L8IEU8 whole entry): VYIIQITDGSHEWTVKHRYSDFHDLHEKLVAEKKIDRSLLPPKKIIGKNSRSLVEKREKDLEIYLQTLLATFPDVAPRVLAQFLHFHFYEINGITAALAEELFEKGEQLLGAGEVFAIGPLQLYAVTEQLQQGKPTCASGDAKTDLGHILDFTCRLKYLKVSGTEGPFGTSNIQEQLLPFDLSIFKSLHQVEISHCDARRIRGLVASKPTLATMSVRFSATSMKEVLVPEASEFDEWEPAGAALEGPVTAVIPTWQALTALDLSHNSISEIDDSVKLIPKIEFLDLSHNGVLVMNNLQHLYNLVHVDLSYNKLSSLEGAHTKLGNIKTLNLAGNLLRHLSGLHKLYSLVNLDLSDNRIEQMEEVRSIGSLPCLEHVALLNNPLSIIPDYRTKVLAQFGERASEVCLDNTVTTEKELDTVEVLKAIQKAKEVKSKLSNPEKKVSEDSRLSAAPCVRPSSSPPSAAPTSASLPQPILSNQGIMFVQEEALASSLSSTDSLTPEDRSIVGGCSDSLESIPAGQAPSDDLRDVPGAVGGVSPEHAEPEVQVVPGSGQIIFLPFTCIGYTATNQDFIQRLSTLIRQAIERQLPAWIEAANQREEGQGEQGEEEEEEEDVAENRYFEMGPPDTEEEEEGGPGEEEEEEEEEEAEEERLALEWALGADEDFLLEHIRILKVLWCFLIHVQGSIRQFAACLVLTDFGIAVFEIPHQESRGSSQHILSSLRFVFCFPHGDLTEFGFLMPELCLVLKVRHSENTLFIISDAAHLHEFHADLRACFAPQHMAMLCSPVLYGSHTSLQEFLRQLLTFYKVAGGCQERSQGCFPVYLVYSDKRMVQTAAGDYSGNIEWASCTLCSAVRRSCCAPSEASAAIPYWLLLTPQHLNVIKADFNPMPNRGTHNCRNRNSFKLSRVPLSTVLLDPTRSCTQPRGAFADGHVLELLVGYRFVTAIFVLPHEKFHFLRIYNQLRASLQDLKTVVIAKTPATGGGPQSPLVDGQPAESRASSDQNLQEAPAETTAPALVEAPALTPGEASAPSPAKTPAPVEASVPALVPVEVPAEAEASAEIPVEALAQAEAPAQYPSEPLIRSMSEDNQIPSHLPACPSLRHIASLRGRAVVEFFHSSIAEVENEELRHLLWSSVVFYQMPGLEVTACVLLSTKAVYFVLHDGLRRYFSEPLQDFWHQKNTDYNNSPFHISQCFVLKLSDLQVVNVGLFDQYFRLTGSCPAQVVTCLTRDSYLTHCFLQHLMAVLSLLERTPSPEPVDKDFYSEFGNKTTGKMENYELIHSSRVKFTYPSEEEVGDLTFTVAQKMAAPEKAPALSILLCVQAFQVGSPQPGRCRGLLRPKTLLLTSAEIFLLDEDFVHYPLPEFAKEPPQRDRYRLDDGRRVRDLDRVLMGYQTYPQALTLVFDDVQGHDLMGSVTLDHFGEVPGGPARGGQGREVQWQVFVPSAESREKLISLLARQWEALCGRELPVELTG

SMILES | Ki [1] | Ki [2] | Ki (Nischarin)
Cc1cccc([C@@H](C)c2cnc[nH]2)c1C | 1000 nM | 316 nM | 200 nM
NC1=NC2(CCc3ccccc3C2)CO1 (stereo unspecified) [S18616] | 1000 nM | 100 nM | 39.8 nM
